Results on four compounds are retold here after US7683089B1, “4-(Phenylmethyl and substituted phenylmethyl)-imidazole-2-thiones acting as specific alpha2 adrenergic agonists” (Allergan, Inc, priority 2004, dated 2010).

The target of series [1] is T1, alpha2B adrenergic receptor (Homo sapiens, UniProt P18089).
T1 construct: expressed in transfected cells; host or cells: NIH-3T3 cells
T1 sequence (P18089 1-450): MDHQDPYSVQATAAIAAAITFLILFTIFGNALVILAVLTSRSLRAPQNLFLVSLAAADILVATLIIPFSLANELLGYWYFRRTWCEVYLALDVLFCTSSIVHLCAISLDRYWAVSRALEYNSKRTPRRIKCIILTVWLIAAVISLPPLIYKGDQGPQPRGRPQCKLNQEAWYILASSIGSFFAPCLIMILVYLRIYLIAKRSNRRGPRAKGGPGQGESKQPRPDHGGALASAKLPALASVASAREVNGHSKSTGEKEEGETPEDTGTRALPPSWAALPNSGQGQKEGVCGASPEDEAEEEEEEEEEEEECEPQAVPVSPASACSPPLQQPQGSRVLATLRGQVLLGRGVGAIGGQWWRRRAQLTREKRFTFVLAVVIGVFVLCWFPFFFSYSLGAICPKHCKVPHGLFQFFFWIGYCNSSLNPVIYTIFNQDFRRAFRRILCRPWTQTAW
The experiment in a line: Receptor Selection and Amplification Technology (RSAT) assay, alpha2B. It is filed as cell-based. The settings on record: RSAT in NIH-3T3 cells; ratio of maximal effect of drug to that of standard full agonist brimonidine (UK14304); NA = not active at concentrations less than 10 micromolar. An excerpt:
(§1) The imidazole-2-thione compounds of the invention are agonists of alpha2 adrenergic receptors. […] Al., 1995, Pharmacol. Toxicol. 76, pp. 308-311 (incorporated herein by reference) and is also described below. Another reference pertinent to this assay is Conklin et al. (1993) Nature 363:274-6, also incorporated herein by reference.
(§2) Receptor Selection and Amplification Technology (RSAT) Assay
(§3) The RSAT assay measures a receptor-mediated loss of contact inhibition that results in selective proliferation of receptor-containing cells in a mixed population of confluent cells. The increase in cell number is assessed with an appropriate transfected marker gene such as β-galactosidase, the activity of which can be easily measured in a 96-well format. Receptors that activate the G protein, Gq, elicit this response. Alpha2 receptors, which normally couple to Gi, activate the RSAT response when coexpressed with a hybrid Gq protein that has a Gi receptor recognition domain, called Gq/i5.
(§4) NIH-3T3 cells are plated at a density of 2×10^6 cells in 15 cm dishes and maintained in Dulbecco's modified Eagle's medium supplemented with 10% calf serum. One day later, cells are cotransfected by calcium phosphate precipitation with mammalian expression plasmids encoding p-SV-β-galactosidase (5-10 μg), receptor (1-2 μg) and G protein (1-2 μg). 40 μg salmon sperm DNA may also be included in the transfection mixture. Fresh media is added on the following day and 1-2 days later, cells are harvested and frozen in 50 assay aliquots. Cells are thawed and 100 μl added to 100 μl aliquots of various concentrations of drugs in triplicate in 96-well dishes. Incubations continue 72-96 hr at 37° C. After washing with phosphate-buffered saline, β-galactosidase enzyme activity is determined by adding 200 μl of the chromogenic substrate (consisting of 3.5 mM o-nitrophenyl-β-D-galactopyranoside and 0.5% nonidet P-40 in phosphate buffered saline), incubating overnight at 30° C. and measuring optical density at 420 nm. The absorbance is a measure of enzyme activity, which depends on cell number and reflects a receptor-mediated cell proliferation. The efficacy or intrinsic activity is calculated as a ratio of the maximal effect of the drug to the maximal effect of a standard full agonist for each receptor subtype. […]
The RSAT assay measures a receptor-mediated loss of contact inhibition that results in selective proliferation of receptor-containing cells in a mixed population of confluent cells. The increase in cell number is assessed with an appropriate transfected marker gene such as ∃-galactosidase, the activity of which can be easily measured in a 96-well format. […]

Series [2] concerns the target T2, alpha2C adrenergic receptor (Homo sapiens, UniProt P18825).
T2 construct: expressed in transfected cells; host or cells: NIH-3T3 cells
T2 sequence (P18825 1-462): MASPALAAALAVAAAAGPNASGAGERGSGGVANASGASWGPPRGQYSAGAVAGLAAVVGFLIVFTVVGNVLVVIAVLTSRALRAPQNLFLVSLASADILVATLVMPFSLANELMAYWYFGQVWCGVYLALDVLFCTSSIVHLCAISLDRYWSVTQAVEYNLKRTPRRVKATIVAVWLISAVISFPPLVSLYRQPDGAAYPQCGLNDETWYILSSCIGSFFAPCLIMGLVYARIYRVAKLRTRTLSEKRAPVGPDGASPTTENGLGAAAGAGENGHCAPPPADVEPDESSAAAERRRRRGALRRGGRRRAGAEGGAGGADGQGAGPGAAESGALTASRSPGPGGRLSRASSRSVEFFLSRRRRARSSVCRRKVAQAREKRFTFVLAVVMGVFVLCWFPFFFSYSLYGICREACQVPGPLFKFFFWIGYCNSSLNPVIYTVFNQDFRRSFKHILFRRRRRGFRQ
The experiment in a line: Receptor Selection and Amplification Technology (RSAT) assay, alpha2C. It is filed as cell-based. The settings on record: RSAT in NIH-3T3 cells; ratio of maximal effect of drug to that of standard full agonist brimonidine (UK14304); NA = not active at concentrations less than 10 micromolar.
From the text: as §1, §2, §3
as §4, with “Fresh media is added on the following day and 1-2 days later, cells are harvested and frozen in 50 assay aliquots. Cells are thawed and 100 μl added to 100 μl aliquots of various concentrations of drugs in triplicate in 96-well dishes. Incubations continue 72-96 hr at 37° C.” left out

The subject of another series is male Sprague-Dawley rats. The experiment in a line: Sedative activity (exploratory behavior/locomotor skills). It is filed as in vivo, rat. The settings on record: intraperitoneally, up to a dose of 1 mg/kg, 30 minutes after injection. Here is the method: To test sedation, six male Sprague-Dawley rats are given up to 3 mg/kg of the test compound in a saline or DMSO vehicle by intraperitoneal injection (i.p.). Sedation is graded 30 minutes following administration of the drug by monitoring locomotor skills as follows.
The Sprague-Dawley rats are weighed and 1 ml/kg body weight of an appropriate concentration (ie. 3 mg/ml for a final dose of 3 mg/kg) drug solution is injected intraperitoneally. Typically the test compound is formulated in approximately 10 to 50% DMSO. The results are compared to controls that are injected with 1 ml/kg saline or 10 to 50% DMSO. Rat activity is then determined 30 minutes after injection of the drug solution. Rats are placed in a dark covered chamber and a digicom analyzer (Omnitech Electronic) quantitates their exploratory behavior for a five-minute period. The machine records each time the rat interrupts an array of 32 photoelectric beams in the X and Y orientation.

For series [3], the target named is T3, alpha2A adrenergic receptor (Homo sapiens, UniProt P08913).
T3 construct: expressed in transfected cells; host or cells: NIH-3T3 cells
T3 sequence (P08913 1-465): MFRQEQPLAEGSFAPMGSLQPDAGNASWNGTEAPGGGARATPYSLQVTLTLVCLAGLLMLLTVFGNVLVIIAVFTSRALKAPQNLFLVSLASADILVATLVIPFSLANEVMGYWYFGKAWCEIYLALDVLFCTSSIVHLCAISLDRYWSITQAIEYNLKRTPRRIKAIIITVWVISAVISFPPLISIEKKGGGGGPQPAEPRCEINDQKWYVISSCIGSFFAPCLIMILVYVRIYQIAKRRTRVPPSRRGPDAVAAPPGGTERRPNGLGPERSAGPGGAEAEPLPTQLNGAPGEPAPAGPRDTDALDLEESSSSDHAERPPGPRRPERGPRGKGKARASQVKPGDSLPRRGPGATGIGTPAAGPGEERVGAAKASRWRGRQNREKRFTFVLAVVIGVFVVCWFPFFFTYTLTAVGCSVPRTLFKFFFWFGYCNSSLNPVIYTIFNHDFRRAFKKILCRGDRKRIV
The series is described as follows: Receptor Selection and Amplification Technology (RSAT) assay, alpha2A. It is filed as cell-based. The settings on record: RSAT in NIH-3T3 cells; ratio of maximal effect of drug to that of standard full agonist brimonidine (UK14304); NA = not active at concentrations less than 10 micromolar.
From the text: as §1, §2, §3
as §4, with “Fresh media is added on the following day and 1-2 days later, cells are harvested and frozen in 50 assay aliquots. Cells are thawed and 100 μl added to 100 μl aliquots of various concentrations of drugs in triplicate in 96-well dishes. Incubations continue 72-96 hr at 37° C.” left out

As to `CC(c1ccccc1)c1c[nH]c(=S)[nH]1` (stereo not drawn) [Compound 4, 4-(1-phenyl-ethyl)-1,3-dihydro-imidazole-2-thione], the “Intrinsic Activity Alpha 2B” value in series [1] was found to be 1.11.

For the compound `CC(c1c[nH]c(=S)[nH]1)c1cccc(C(F)(F)F)c1F` (stereo not drawn) [Compound 3, 4-[1-(2-fluoro-3-trifluoromethyl-phenyl)-ethyl]-1,3-dihydro-imidazole-2-thione], the “Intrinsic Activity Alpha 2C” value in series [2] is listed as 0.84. In addition, the “Intrinsic Activity Alpha 2B” value in series [1] is listed as 1.04. Besides, the sedative effect result in the series with male Sprague-Dawley rats was “no sedative effect”. Besides, the “Intrinsic Activity Alpha 2A” value in series [3] was 0.88.

Turning to `CC(c1c[nH]c(=S)[nH]1)c1cccc(Cl)c1Cl` (stereo not drawn) [Compound 1, 4-[1-(2,3-dichloro-phenyl)-ethyl]-1,3-dihydro-imidazole-2-thione], the “Intrinsic Activity Alpha 2C” value in series [2] is recorded as 1.03. For the same compound, the “Intrinsic Activity Alpha 2B” value in series [1] turned out to be 0.85. For the same compound, the sedative effect result with male Sprague-Dawley rats is “no sedative effect”. In addition, the “Intrinsic Activity Alpha 2A” value in series [3] is 0.87.

Consider `CC(c1c[nH]c(=S)[nH]1)c1cccc(F)c1F` (stereo not drawn) [Compound 2, 4-[1-(2,3-difluoro-phenyl)-ethyl]-1,3-dihydro-imidazole-2-thione], for which the “Intrinsic Activity Alpha 2C” value in series [2] is listed as 0.83. Moreover, in series [1], the “Intrinsic Activity Alpha 2B” value was 0.99. Moreover, the “Intrinsic Activity Alpha 2A” value in series [3] is listed as 0.66.
